Assays:
Experiment in all cases: Poly(I:C) treatment, interferon-stimulated gene expression (qPCR, RNA-seq)
Conditions in all cases: 50 μg/mL poly(I:C), 1 day
HepG2 liver cancer cells = type: cell-based, human
Excerpt: (§1) RNA extraction and bulk-population RNA-seq. Cells were lysed using Zymo RNA lysis buffer and total RNA was extracted from cells using the Zymo Quick RNA kit per the manufacturer's instructions. High-quality RNA with RNA integrity number (RIN)>7 was used for library construction. For each cell-type, we included 2-3 technical replicates, generally defined as different wells of the same cell-type generated in the same differentiation experiment. In one experiment, 46 RNA-seq libraries were multiplexed and then sequenced on 2 lanes of the Illumina NovaSeq 6000 S4 sequencer by Novogene to generate 150-bp paired-end reads. In a second experiment, 36 RNA-seq libraries were multiplexed and then sequenced on 1 lane of the NovaS4 sequencer by Novogene to generate 150-bp paired-end reads.
(§2) Poly(I:C) treatment. HepG2 cells, HuH7 cells, metabolically-selected H1 hPSC-and H7 hPSC-derived hepatocytes, and primary human hepatocytes (Lonza and Gibco) were thawed in a 37° C. water bath for 3 minutes. After thawing, HepG2, HuH7, and hPSC-derived hepatocytes were quenched in warm DMEM/F12 to dilute the cryopreservation solution. After thawing, primary human hepatocytes, obtained from either Lonza or Gibco, were respectively quenched in MCHT50 and CHRM to dilute the cryopreservation solution. Thawed cells were centrifuged at 1500 rpm for 5 mins and the supernatant was discarded, leaving the cell pellets. The cell pellets were resuspended in the aforementioned hepatocyte maintenance media (Lonza hepatocyte culture medium supplemented with 10 μM Dexamethasone, 10 μM Forskolin, 2 μM RO4929097, 200 μg/ml AA2P, 10 μg/ml Insulin, and 1 μM Thiazovivin [DFRAIT]). For each cell-type, ~400,000 cells were plated per well of 24-well plate that had been coated with collagen 1 (Corning Biocoat). For hPSC-derived hepatocytes, the collagen 1-coated wells were briefly treated with Geltrex prior to plating cells. The media was replenished every day for 2 days and on the third day, hepatocyte maintenance media+ DFRAIT+50 μg/ml poly(I:C) was added for 24 hours. Cells were then lysed with RNA lysis buffer (Zymo) and processed with an RNA extraction kit (Zymo) to extract RNA for qPCR and RNA-seq.

HuH7 liver cancer cells = type: cell-based, human
Excerpt: as §1, §2

[1] = system: hPSC-derived hepatocytes (H1 and H7 hPSC lines); type: cell-based, human
Excerpt: as §1, §2

[2] = system: primary adult human hepatocytes (Lonza, Gibco); type: cell-based
Excerpt: as §1
Poly(I:C) treatment. HepG2 cells, HuH7 cells, metabolically-selected H1 hPSC-and H7 hPSC-derived hepatocytes, and primary human hepatocytes (Lonza and Gibco) were thawed in a 37° C. water bath for 3 minutes. After thawing, HepG2, HuH7, and hPSC-derived hepatocytes were quenched in warm DMEM/F12 to dilute the cryopreservation solution. After thawing, primary human hepatocytes, obtained from either Lonza or Gibco, were respectively quenched in MCHT50 and CHRM to dilute the cryopreservation solution. Thawed cells were centrifuged at 1500 rpm for 5 mins and the supernatant was discarded, leaving the cell pellets. […]

## poly(I:C)
HepG2 liver cancer cells
  ISG and inflammatory cytokine expression change (RNA-seq): minimal changes
  upregulation of interferon-stimulated genes (qPCR): largely failed to upregulate
HuH7 liver cancer cells
  ISG and inflammatory cytokine expression change (RNA-seq): minimal changes
  upregulation of interferon-stimulated genes (qPCR): largely failed to upregulate
[1]
  ISG and inflammatory cytokine expression change (RNA-seq): significant ISG and inflammatory cytokine upregulation
[1]; H1- and H7-derived hepatocytes
  induction of interferon-stimulated genes MX1, VIPERIN, IFIT1, IFIT2, IFIT3, OAS1, OASL, ISG15 (qPCR): strongly induced
[2]
  ISG and inflammatory cytokine expression change (RNA-seq): significant ISG and inflammatory cytokine upregulation
[2]; two hepatocyte sources
  upregulation of interferon-stimulated genes (qPCR): upregulated ISGs
